Measured values reported in PubChem BioAssay (NCI).
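Five compound concentrations were applied to cells in 96-well plates for 48 hours; endpoints were derived by simple linear interpolation of the resulting dose-response curve. Definition used: TGI = concentration required for complete inhibition of growth.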

Test system: M14 melanoma
Test: NCI-60 cell line screen, 48 h

| SMILES | TGI [µM] |
| --- | --- |
| CC1CC2OC(=O)C(C)C2CC2(C)C(OC3OC(CO)C(O)C(O)C3O)OCCC12 (stereo not given) | > 100 |
| CC1=CC(=O)c2ccccc2C1=O | 15.8 |
| O=C(/C=C/c1ccc(O)c(-c2cc(C(=O)/C=C/c3ccc(O)cc3)c(O)cc2O)c1)c1ccc(O)cc1O | > 50 |
| C[C@@H](c1ccccc1)N1CN(C(=O)OCc2ccccc2)C(C)(C)CC1=O | > 100 |
| CC(=O)Oc1ccc(-c2cc3ccccc3oc2=O)cc1 | > 100 |
| Clc1cc(Cl)cc(C=NC23CC4CC(CC(C4)C2)C3)c1 | > 10 |

Test system: MALME-3M melanoma
Test: NCI-60 cell line screen, 48 h

| SMILES | TGI [µM] |
| --- | --- |
| Nc1cccc(/C=C/C(=O)N2CCN(CCOC(c3ccccc3)c3ccccc3)CC2)c1 | 31.2 |
| CC1CC2OC(=O)C(C)C2CC2(C)C(OC3OC(CO)C(O)C(O)C3O)OCCC12 (stereo not given) | > 100 |
| CC1=CC(=O)c2ccccc2C1=O | 10.9 |
| O=C(/C=C/c1ccc(O)c(-c2cc(C(=O)/C=C/c3ccc(O)cc3)c(O)cc2O)c1)c1ccc(O)cc1O | > 50 |
| C[C@@H](c1ccccc1)N1CN(C(=O)OCc2ccccc2)C(C)(C)CC1=O | > 100 |
| CC(=O)Oc1ccc(-c2cc3ccccc3oc2=O)cc1 | > 100 |
| Clc1cc(Cl)cc(C=NC23CC4CC(CC(C4)C2)C3)c1 | > 10 |

Test system: MCF7 breast
Test: NCI-60 cell line screen, 48 h

| SMILES | TGI [µM] |
| --- | --- |
| Nc1cccc(/C=C/C(=O)N2CCN(CCOC(c3ccccc3)c3ccccc3)CC2)c1 | 31.5 |
| CC1CC2OC(=O)C(C)C2CC2(C)C(OC3OC(CO)C(O)C(O)C3O)OCCC12 (stereo not given) | > 100 |
| CC1=CC(=O)c2ccccc2C1=O | 23.8 |
| O=C(/C=C/c1ccc(O)c(-c2cc(C(=O)/C=C/c3ccc(O)cc3)c(O)cc2O)c1)c1ccc(O)cc1O | > 50 |
| C[C@@H](c1ccccc1)N1CN(C(=O)OCc2ccccc2)C(C)(C)CC1=O | > 100 |
| CC(=O)Oc1ccc(-c2cc3ccccc3oc2=O)cc1 | > 100 |
| Clc1cc(Cl)cc(C=NC23CC4CC(CC(C4)C2)C3)c1 | > 10 |

Test system: MDA-MB-231 breast
Test: NCI-60 cell line screen, 48 h

| SMILES | TGI [µM] |
| --- | --- |
| Nc1cccc(/C=C/C(=O)N2CCN(CCOC(c3ccccc3)c3ccccc3)CC2)c1 | 29.1 |
| CC1CC2OC(=O)C(C)C2CC2(C)C(OC3OC(CO)C(O)C(O)C3O)OCCC12 (stereo not given) | > 100 |
| CC1=CC(=O)c2ccccc2C1=O | 9.87 |
| O=C(/C=C/c1ccc(O)c(-c2cc(C(=O)/C=C/c3ccc(O)cc3)c(O)cc2O)c1)c1ccc(O)cc1O | > 50 |
| C[C@@H](c1ccccc1)N1CN(C(=O)OCc2ccccc2)C(C)(C)CC1=O | > 100 |
| CC(=O)Oc1ccc(-c2cc3ccccc3oc2=O)cc1 | > 100 |
| Clc1cc(Cl)cc(C=NC23CC4CC(CC(C4)C2)C3)c1 | > 10 |

Test system: MDA-MB-435
Test: NCI-60 cell line screen, 48 h

| SMILES | TGI [µM] |
| --- | --- |
| Nc1cccc(/C=C/C(=O)N2CCN(CCOC(c3ccccc3)c3ccccc3)CC2)c1 | 29.8 |
| CC1CC2OC(=O)C(C)C2CC2(C)C(OC3OC(CO)C(O)C(O)C3O)OCCC12 (stereo not given) | > 100 |
| CC1=CC(=O)c2ccccc2C1=O | 3.81 |
| O=C(/C=C/c1ccc(O)c(-c2cc(C(=O)/C=C/c3ccc(O)cc3)c(O)cc2O)c1)c1ccc(O)cc1O | > 50 |
| C[C@@H](c1ccccc1)N1CN(C(=O)OCc2ccccc2)C(C)(C)CC1=O | > 100 |
| CC(=O)Oc1ccc(-c2cc3ccccc3oc2=O)cc1 | > 100 |
| Clc1cc(Cl)cc(C=NC23CC4CC(CC(C4)C2)C3)c1 | > 10 |

Test system: MDA-N
Test: NCI-60 cell line screen, 48 h

| SMILES | TGI [µM] |
| --- | --- |
| Nc1cccc(/C=C/C(=O)N2CCN(CCOC(c3ccccc3)c3ccccc3)CC2)c1 | 35.9 |
| CC1CC2OC(=O)C(C)C2CC2(C)C(OC3OC(CO)C(O)C(O)C3O)OCCC12 (stereo not given) | > 100 |
| CC1=CC(=O)c2ccccc2C1=O | 2.37 |
| O=C(/C=C/c1ccc(O)c(-c2cc(C(=O)/C=C/c3ccc(O)cc3)c(O)cc2O)c1)c1ccc(O)cc1O | > 50 |
| C[C@@H](c1ccccc1)N1CN(C(=O)OCc2ccccc2)C(C)(C)CC1=O | > 100 |
| CC(=O)Oc1ccc(-c2cc3ccccc3oc2=O)cc1 | > 100 |
| Clc1cc(Cl)cc(C=NC23CC4CC(CC(C4)C2)C3)c1 | > 10 |

Test system: MOLT-4 leukemia
Test: NCI-60 cell line screen, 48 h

| SMILES | TGI [µM] |
| --- | --- |
| Nc1cccc(/C=C/C(=O)N2CCN(CCOC(c3ccccc3)c3ccccc3)CC2)c1 | 21.2 |
| CC1CC2OC(=O)C(C)C2CC2(C)C(OC3OC(CO)C(O)C(O)C3O)OCCC12 (stereo not given) | > 100 |
| CC1=CC(=O)c2ccccc2C1=O | 5.15 |
| O=C(/C=C/c1ccc(O)c(-c2cc(C(=O)/C=C/c3ccc(O)cc3)c(O)cc2O)c1)c1ccc(O)cc1O | > 50 |
| C[C@@H](c1ccccc1)N1CN(C(=O)OCc2ccccc2)C(C)(C)CC1=O | > 100 |
| CC(=O)Oc1ccc(-c2cc3ccccc3oc2=O)cc1 | > 100 |
| Clc1cc(Cl)cc(C=NC23CC4CC(CC(C4)C2)C3)c1 | > 10 |

Test system: NCI-H226 lung
Test: NCI-60 cell line screen, 48 h

| SMILES | TGI [µM] |
| --- | --- |
| Nc1cccc(/C=C/C(=O)N2CCN(CCOC(c3ccccc3)c3ccccc3)CC2)c1 | 39.8 |
| CC1CC2OC(=O)C(C)C2CC2(C)C(OC3OC(CO)C(O)C(O)C3O)OCCC12 (stereo not given) | > 100 |
